The values that follow are results of earlier work, collected in US20250262241A1, “METHODS TO IMPROVE STABILITY OF VIRUS TRANSDUCTION OF y8 T CELLS AND APPLICATIONS THEREOF” (UNICET BIOTECH CO. LLC., priority 2021, published 2025).

In one series the target is T1, IKKε (Homo sapiens, UniProt Q14164).
T1 sequence (Q14164 1-716): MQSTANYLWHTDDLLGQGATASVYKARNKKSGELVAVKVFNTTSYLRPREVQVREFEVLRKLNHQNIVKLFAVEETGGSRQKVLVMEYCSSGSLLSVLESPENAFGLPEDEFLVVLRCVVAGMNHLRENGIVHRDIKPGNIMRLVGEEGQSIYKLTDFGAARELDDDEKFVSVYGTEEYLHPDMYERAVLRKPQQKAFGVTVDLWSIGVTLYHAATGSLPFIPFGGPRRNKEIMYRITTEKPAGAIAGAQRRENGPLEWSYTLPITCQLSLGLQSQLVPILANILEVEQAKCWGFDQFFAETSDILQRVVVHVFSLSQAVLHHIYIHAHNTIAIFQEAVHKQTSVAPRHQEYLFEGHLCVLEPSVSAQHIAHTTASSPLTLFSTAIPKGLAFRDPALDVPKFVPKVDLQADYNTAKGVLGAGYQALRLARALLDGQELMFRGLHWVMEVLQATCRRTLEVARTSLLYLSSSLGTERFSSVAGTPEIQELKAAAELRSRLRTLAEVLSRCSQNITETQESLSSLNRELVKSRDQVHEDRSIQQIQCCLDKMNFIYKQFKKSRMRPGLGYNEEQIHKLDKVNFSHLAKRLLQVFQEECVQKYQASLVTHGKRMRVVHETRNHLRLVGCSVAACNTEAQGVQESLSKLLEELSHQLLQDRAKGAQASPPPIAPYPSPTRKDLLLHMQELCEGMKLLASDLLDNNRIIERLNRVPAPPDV
To be noted: cited from earlier work.

The target in another series is T2, PDK1 (Homo sapiens, UniProt O15530).
T2 sequence (O15530 1-556): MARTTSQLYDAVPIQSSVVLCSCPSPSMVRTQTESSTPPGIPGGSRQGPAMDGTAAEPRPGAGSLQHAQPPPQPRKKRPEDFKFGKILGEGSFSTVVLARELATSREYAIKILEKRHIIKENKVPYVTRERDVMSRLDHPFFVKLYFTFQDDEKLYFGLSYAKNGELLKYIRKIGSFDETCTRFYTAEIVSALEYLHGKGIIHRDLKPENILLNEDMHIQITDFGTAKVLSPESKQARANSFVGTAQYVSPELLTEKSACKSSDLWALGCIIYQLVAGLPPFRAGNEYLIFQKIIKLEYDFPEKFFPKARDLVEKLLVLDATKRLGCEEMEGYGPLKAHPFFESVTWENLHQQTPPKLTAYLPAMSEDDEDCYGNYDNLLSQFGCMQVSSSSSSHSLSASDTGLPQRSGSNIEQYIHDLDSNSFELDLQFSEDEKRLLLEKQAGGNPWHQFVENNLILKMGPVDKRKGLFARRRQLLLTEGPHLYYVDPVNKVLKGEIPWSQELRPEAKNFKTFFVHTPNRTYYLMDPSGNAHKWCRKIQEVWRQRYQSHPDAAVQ
Conditions: cited from earlier work.

Turning to BX795, the IC50 on IKKε is 41 nM; on PDK1, 6 nM.

Broadly, the IC50 is the midpoint of a concentration-inhibition curve.
